# Results: the NIST ThermoML archive (doi:10.1016/j.fluid.2015.09.019)
# Numbers after ± are expanded uncertainties.
# Tests used:
# [1] = Crystal; DTA
# [2] = Molar enthalpy of transition or fusion; conditions: Crystal; DSC
smiles,measurement,setting,value
"CC1=CC(=O)c2ccccc2C1=O [2-methyl-1,4-naphthalenedione]",Normal melting temperature,[1],107.00 ± 1.1 °C
same,Molar enthalpy of transition or fusion,[2],4.86 ± 0.22 kcal/mol
